Source: patent US20240148821A1, “PHARMACEUTICAL USE OF CYCLIC PEPTIDE COMPOUND” (CHUGAI SEIYAKU KABUSHIKI KAISHA, priority 2021, published 2024)
Numbered stars: 1 amine (or outer) side, 2 acyl side, 3 side chain; on linkers, the order of the positions; unused ones are H or OH. Bridge positions count the residues as written; N and C are the ends. Square brackets hold non-standard residues; d marks the D form. Peptide text beside a SMILES is read from it. * marks the point of attachment. hPhe(3-Cl-4-CF3) = N[C@@H](CCc1ccc(C(F)(F)F)c(Cl)c1)C(=O)O; NMePhe(4-CF3) = CN[C@@H](Cc1ccc(C(F)(F)F)cc1)C(=O)O; NMePhe(4-Cl) = CN[C@@H](Cc1ccc(Cl)cc1)C(=O)O; Leu(4,5-dehydro) = C=C(C)C[C@H](N)C(=O)O; NMeAla(cPent) = CN[C@@H](CC1CCCC1)C(=O)O; Phe(3-Br) = N[C@@H](Cc1cccc(Br)c1)C(=O)O; NMeGly(cPent) = CN[C@H](C(=O)O)C1CCCC1; Phe(3-I) = N[C@@H](Cc1cccc(I)c1)C(=O)O; X26 = CC(C)=CC[C@H](N[*:1])C(=O)[*:2]; NMeY = CN[C@@H](Cc1ccc(O)cc1)C(=O)O; NMeCha = CN[C@@H](CC1CCCCC1)C(=O)O; NMeAllylGly = C=CC[C@H](NC)C(=O)O; NMeAoc(2) = CCCCCC[C@H](NC)C(=O)O; NMeChg = CN[C@H](C(=O)O)C1CCCCC1; NMeD = CN[C@@H](CC(=O)O)C(=O)O; NMeL = CN[C@@H](CC(C)C)C(=O)O; Cba = N[C@@H](CC1CCC1)C(=O)O; dNMeAbu = CC[C@@H](NC)C(=O)O; hLeu = CC(C)CC[C@H](N)C(=O)O; NMeV = CN[C@H](C(=O)O)C(C)C; dNMeS = CN[C@H](CO)C(=O)O; NMeA = CN[C@@H](C)C(=O)O; NMeAib = CNC(C)(C)C(=O)O; Nle = CCCC[C@H](N)C(=O)O; Piperidide = C1CCN(*)CC1; Pra = C#CC[C@H](N)C(=O)O; Ac5c = NC1(C(=O)O)CCCC1; Aze = O=C(O)[C@@H]1CCN1; Isopentyl = CC(C)CC*; Sar = CNCC(=O)O

These compounds were tested on Human pancreatic cancer cell line AsPC-1 (G12D mutation Kras) (assay: AsPC-1 cell growth inhibition (AsPC-1 CGI)). Conditions: read-out: AsPC-1 cell growth inhibition, 50% growth inhibitory concentration (IC50 value); 96 hours, CellTiter-Glo, values classified in ranges.
Assay type: cell-based
Experimental: Test compounds were serially dilated with dimethyl sulfoxide, and 200 nL was then dispensed to a U-bottom 96-well plate using Labcyte Echo. […] The cell suspension was dispensed to a. plate containing a test compound at 100 μL per well and incubated at 37° C. in a 5% carbon dioxide gas incubator. 96 hours later, 80 μL of CellTiter-Glo (Promega) was added to each well and fluorescence was measured.

| Structure (SMILES) | IC50 [nM] |
| --- | --- |
| C=C(C)C[C@@H]1NC(=O)[C@H](Cc2cccc(I)c2)NC(=O)CN(C)C(=O)[C@H](Cc2ccc(Cl)cc2)N(C)C(=O)[C@@H]2CCN2C(=O)CN(C)C(=O)[C@H]([C@@H](C)CC)NC(=O)[C@H](CC(C)C)N(C)C(=O)C[C@@H](C(=O)N2CCCCC2)N(C)C(=O)[C@H](CC(C)C)NC(=O)C(C)(C)N(C)C1=O [Compound 1414] ([NMeL]I[Sar][Aze][NMePhe(4-Cl)][Sar][Phe(3-I)][Leu(4,5-dehydro)][NMeAib]L[NMeD]-Piperidide; lactam N-11) | > 500 |
| CCCC[C@@H]1NC(=O)[C@H](Cc2cccc(Br)c2)NC(=O)CN(C)C(=O)[C@H](Cc2ccc(Cl)cc2)N(C)C(=O)[C@@H]2CCN2C(=O)[C@H](C)N(C)C(=O)[C@H]([C@@H](C)CC)NC(=O)[C@H](CC(C)C)N(C)C(=O)C[C@@H](C(=O)N2CCCCC2)N(C)C(=O)[C@H](CC(C)C)NC(=O)C(C)(C)N(C)C1=O [Compound 1415] ([NMeL]I[NMeA][Aze][NMePhe(4-Cl)][Sar][Phe(3-Br)][Nle][NMeAib]L[NMeD]-Piperidide; lactam N-11) | > 500 |
| CCCCCC[C@H]1C(=O)N[C@@H]([C@@H](C)CC)C(=O)N(C)CC(=O)N2CC[C@H]2C(=O)N(C)[C@@H](Cc2ccc(OC)cc2)C(=O)N(C)CC(=O)N[C@@H](Cc2cccc(I)c2)C(=O)N[C@@H](CCCC)C(=O)N(C)C(C)(C)C(=O)N[C@@H](CC(C)C)C(=O)N(C)[C@H](C(=O)N2CCCCC2)CC(=O)N1C [Compound 1417] ([NMeAoc(2)]I[Sar][Aze][NMeY](Me)[Sar][Phe(3-I)][Nle][NMeAib]L[NMeD]-Piperidide; lactam N-11) | > 500 |
| CC[C@H](C)[C@@H]1NC(=O)[C@H](CC(C)C)N(C)C(=O)C[C@@H](C(=O)N2CCCCC2)N(C)C(=O)[C@H](CC(C)C)NC(=O)C(C)(C)N(C)C(=O)[C@H](CC=C(C)C)NC(=O)[C@H](Cc2cccc(I)c2)NC(=O)CN(C)C(=O)[C@H](Cc2ccc(Cl)cc2)N(C)C(=O)[C@@H]2CCN2C(=O)[C@H](C)N(C)C1=O [Compound 1419] ([NMeL]I[NMeA][Aze][NMePhe(4-Cl)][Sar][Phe(3-I)][X26][NMeAib]L[NMeD]-Piperidide; lactam N-11) | > 500 |
| C=C(C)C[C@@H]1NC(=O)[C@H](Cc2cccc(I)c2)NC(=O)CN(C)C(=O)[C@H](Cc2ccc(Cl)cc2)N(C)C(=O)CN(C)C(=O)CN(C)C(=O)[C@H]([C@@H](C)CC)NC(=O)[C@H](CC(C)C)N(C)C(=O)C[C@@H](C(=O)N2CCCCC2)N(C)C(=O)[C@H](CC(C)C)NC(=O)C(C)(C)N(C)C1=O [Compound 1421] ([NMeL]I[Sar][Sar][NMePhe(4-Cl)][Sar][Phe(3-I)][Leu(4,5-dehydro)][NMeAib]L[NMeD]-Piperidide; lactam N-11) | > 500 |
| CCCC[C@@H]1NC(=O)[C@H](Cc2cccc(I)c2)NC(=O)CN(C)C(=O)[C@H](Cc2ccc(Cl)cc2)N(C)C(=O)CN(C)C(=O)CN(C)C(=O)[C@H]([C@@H](C)CC)NC(=O)[C@H](CC(C)C)N(C)C(=O)C[C@@H](C(=O)N2CCCCC2)N(C)C(=O)[C@H](CC2CCC2)NC(=O)C(C)(C)N(C)C1=O [Compound 1422] ([NMeL]I[Sar][Sar][NMePhe(4-Cl)][Sar][Phe(3-I)][Nle][NMeAib][Cba][NMeD]-Piperidide; lactam N-11) | > 500 |
| C#CC[C@@H]1NC(=O)[C@H](Cc2cccc(I)c2)NC(=O)CN(C)C(=O)[C@H](Cc2ccc(C(F)(F)F)cc2)N(C)C(=O)[C@@H]2CCN2C(=O)CN(C)C(=O)[C@H]([C@@H](C)CC)NC(=O)[C@H](CC(C)C)N(C)C(=O)C[C@@H](C(=O)N2CCCCC2)N(C)C(=O)[C@H](CC(C)C)NC(=O)C(C)(C)N(C)C1=O [Compound 1425] ([NMeL]I[Sar][Aze][NMePhe(4-CF3)][Sar][Phe(3-I)][Pra][NMeAib]L[NMeD]-Piperidide; lactam N-11) | > 500 |
| C#CC[C@@H]1NC(=O)[C@H](Cc2cccc(I)c2)NC(=O)CN(C)C(=O)[C@H](Cc2ccc(Cl)cc2)N(C)C(=O)CN(C)C(=O)CN(C)C(=O)[C@H]([C@@H](C)CC)NC(=O)[C@H](CC(C)C)N(C)C(=O)C[C@@H](C(=O)N2CCCCC2)N(C)C(=O)[C@H](CC(C)C)NC(=O)C(C)(C)N(C)C1=O [Compound 1426] ([NMeL]I[Sar][Sar][NMePhe(4-Cl)][Sar][Phe(3-I)][Pra][NMeAib]L[NMeD]-Piperidide; lactam N-11) | > 500 |
| C#CC[C@@H]1NC(=O)[C@H](Cc2cccc(I)c2)NC(=O)CN(C)C(=O)[C@H](Cc2ccc(Cl)cc2)N(C)C(=O)[C@@H]2CCN2C(=O)[C@H](C)N(C)C(=O)[C@H]([C@@H](C)CC)NC(=O)[C@H](CC(C)C)N(C)C(=O)C[C@@H](C(=O)N2CCCCC2)N(C)C(=O)[C@H](CC(C)C)NC(=O)C(C)(C)N(C)C1=O [Compound 1428] ([NMeL]I[NMeA][Aze][NMePhe(4-Cl)][Sar][Phe(3-I)][Pra][NMeAib]L[NMeD]-Piperidide; lactam N-11) | > 500 |
| C=C(C)C[C@@H]1NC(=O)[C@H](Cc2cccc(I)c2)NC(=O)CN(C)C(=O)[C@H](Cc2ccc(Cl)cc2)N(C)C(=O)[C@@H]2CCN2C(=O)[C@H](C)N(C)C(=O)[C@H]([C@@H](C)CC)NC(=O)[C@H](CC(C)C)N(C)C(=O)C[C@@H](C(=O)N2CCCCC2)N(C)C(=O)[C@H](CC(C)C)NC(=O)C(C)(C)N(C)C1=O [Compound 1429] ([NMeL]I[NMeA][Aze][NMePhe(4-Cl)][Sar][Phe(3-I)][Leu(4,5-dehydro)][NMeAib]L[NMeD]-Piperidide; lactam N-11) | > 500 |
| CCCC[C@@H]1NC(=O)[C@H](Cc2cccc(I)c2)NC(=O)CN(C)C(=O)[C@H](CC2CCCC2)N(C)C(=O)[C@@H]2CCN2C(=O)[C@H](C)N(C)C(=O)[C@H]([C@@H](C)CC)NC(=O)[C@H](CC(C)C)N(C)C(=O)C[C@@H](C(=O)N2CCCCC2)N(C)C(=O)[C@H](CC(C)C)NC(=O)C(C)(C)N(C)C1=O [Compound 1432] ([NMeL]I[NMeA][Aze][NMeAla(cPent)][Sar][Phe(3-I)][Nle][NMeAib]L[NMeD]-Piperidide; lactam N-11) | > 500 |
| CCCC[C@@H]1NC(=O)[C@H](Cc2cccc(I)c2)NC(=O)CN(C)C(=O)[C@H](Cc2ccc(C(F)(F)F)cc2)N(C)C(=O)CN(C)C(=O)CN(C)C(=O)[C@H]([C@@H](C)CC)NC(=O)[C@H](CC(C)C)N(C)C(=O)C[C@@H](C(=O)N2CCCCC2)N(C)C(=O)[C@H](CCC(C)C)NC(=O)C(C)(C)N(C)C1=O [Compound 1433] ([NMeL]I[Sar][Sar][NMePhe(4-CF3)][Sar][Phe(3-I)][Nle][NMeAib][hLeu][NMeD]-Piperidide; lactam N-11) | > 500 |
| CC[C@@H]1C(=O)NC2(CCCC2)C(=O)N(C)[C@@H](C(C)C)C(=O)N(C)[C@H](C(=O)N2CCCCC2)CC(=O)N(C)[C@@H](CC(C)C)C(=O)N[C@@H]([C@@H](C)CC)C(=O)N(C)[C@@H](C)C(=O)N2CC[C@H]2C(=O)N(C)[C@@H](CC2CCCCC2)C(=O)N(C)CC(=O)N[C@@H](CCc2ccc(C(F)(F)F)c(Cl)c2)C(=O)N1C [Compound 1438] ([NMeL]I[NMeA][Aze][NMeCha][Sar][hPhe(3-Cl-4-CF3)][dNMeAbu][Ac5c][NMeV][NMeD]-Piperidide; lactam N-11) | > 500 |
| CC[C@H](C)[C@@H]1NC(=O)[C@H](CC(C)C)N(C)C(=O)C[C@@H](C(=O)N2CCCCC2)N(C)C(=O)[C@H](C2CCCC2)N(C)C(=O)C2(CCCC2)NC(=O)[C@@H](COCCC(C)C)N(C)C(=O)[C@H](CCc2ccc(C(F)(F)F)c(Cl)c2)NC(=O)CN(C)C(=O)[C@H](CC2CCCCC2)N(C)C(=O)CN(C)C(=O)CN(C)C1=O [Compound 1440] ([NMeL]I[Sar][Sar][NMeCha][Sar][hPhe(3-Cl-4-CF3)][dNMeS](Isopentyl)[Ac5c][NMeGly(cPent)][NMeD]-Piperidide; lactam N-11) | > 500 |
| CC[C@@H]1C(=O)NC2(CCCC2)C(=O)N(C)[C@@H](C2CCCC2)C(=O)N(C)[C@H](C(=O)N2CCCCC2)CC(=O)N(C)[C@@H](CC(C)C)C(=O)N[C@@H]([C@@H](C)CC)C(=O)N(C)[C@@H](C)C(=O)N2CC[C@H]2C(=O)N(C)[C@@H](CC2CCCCC2)C(=O)N(C)CC(=O)N[C@@H](CCc2ccc(C(F)(F)F)c(Cl)c2)C(=O)N1C [Compound 1441] ([NMeL]I[NMeA][Aze][NMeCha][Sar][hPhe(3-Cl-4-CF3)][dNMeAbu][Ac5c][NMeGly(cPent)][NMeD]-Piperidide; lactam N-11) | > 500 |
| CC[C@H](C)[C@@H]1NC(=O)[C@H](CC(C)C)N(C)C(=O)C[C@@H](C(=O)N2CCCCC2)N(C)C(=O)[C@H](C2CCCC2)N(C)C(=O)C2(CCCC2)NC(=O)[C@@H](COCCC(C)C)N(C)C(=O)[C@H](CCc2ccc(C(F)(F)F)c(Cl)c2)NC(=O)CN(C)C(=O)[C@H](CC2CCCCC2)N(C)C(=O)[C@@H]2CCN2C(=O)[C@H](C)N(C)C1=O [Compound 1443] ([NMeL]I[NMeA][Aze][NMeCha][Sar][hPhe(3-Cl-4-CF3)][dNMeS](Isopentyl)[Ac5c][NMeGly(cPent)][NMeD]-Piperidide; lactam N-11) | > 500 |
| CC[C@H](C)[C@@H]1NC(=O)[C@H](CC(C)C)N(C)C(=O)C[C@@H](C(=O)N2CCCCC2)N(C)C(=O)[C@H](C(C)C)N(C)C(=O)C2(CCCC2)NC(=O)[C@@H](CO)N(C)C(=O)[C@H](CCc2ccc(C(F)(F)F)c(Cl)c2)NC(=O)CN(C)C(=O)[C@H](CC2CCCCC2)N(C)C(=O)[C@@H]2CCN2C(=O)[C@H](C)N(C)C1=O [Compound 1444] ([NMeL]I[NMeA][Aze][NMeCha][Sar][hPhe(3-Cl-4-CF3)][dNMeS][Ac5c][NMeV][NMeD]-Piperidide; lactam N-11) | > 500 |
| C=CC[C@H]1C(=O)NC2(CCCC2)C(=O)N(C)[C@@H](C2CCCCC2)C(=O)N(C)[C@H](C(=O)N2CCCCC2)CC(=O)N(C)[C@@H](CC(C)C)C(=O)N[C@@H]([C@@H](C)CC)C(=O)N(C)CC(=O)N(C)CC(=O)N(C)[C@@H](CC2CCCCC2)C(=O)N(C)CC(=O)N[C@@H](CCc2ccc(C(F)(F)F)c(Cl)c2)C(=O)N1C [Compound 1449] ([NMeL]I[Sar][Sar][NMeCha][Sar][hPhe(3-Cl-4-CF3)][NMeAllylGly][Ac5c][NMeChg][NMeD]-Piperidide; lactam N-11 (inferred); C-terminus assumed) | > 500 |
